Entries after “also recorded” stand apart in the source; their conditions may differ.
What was measured:
androgen receptor (AR) = target: T1, androgen receptor (AR) (Homo sapiens, UniProt P10275); assay: Western blot of T47D cell lysates, AR; format: cell-based; conditions: 5 or 10 micromolar, presence or absence of estradiol (E2)
T1 construct: endogenous in cells; host or cells: T47D
T1 sequence (P10275 1-920): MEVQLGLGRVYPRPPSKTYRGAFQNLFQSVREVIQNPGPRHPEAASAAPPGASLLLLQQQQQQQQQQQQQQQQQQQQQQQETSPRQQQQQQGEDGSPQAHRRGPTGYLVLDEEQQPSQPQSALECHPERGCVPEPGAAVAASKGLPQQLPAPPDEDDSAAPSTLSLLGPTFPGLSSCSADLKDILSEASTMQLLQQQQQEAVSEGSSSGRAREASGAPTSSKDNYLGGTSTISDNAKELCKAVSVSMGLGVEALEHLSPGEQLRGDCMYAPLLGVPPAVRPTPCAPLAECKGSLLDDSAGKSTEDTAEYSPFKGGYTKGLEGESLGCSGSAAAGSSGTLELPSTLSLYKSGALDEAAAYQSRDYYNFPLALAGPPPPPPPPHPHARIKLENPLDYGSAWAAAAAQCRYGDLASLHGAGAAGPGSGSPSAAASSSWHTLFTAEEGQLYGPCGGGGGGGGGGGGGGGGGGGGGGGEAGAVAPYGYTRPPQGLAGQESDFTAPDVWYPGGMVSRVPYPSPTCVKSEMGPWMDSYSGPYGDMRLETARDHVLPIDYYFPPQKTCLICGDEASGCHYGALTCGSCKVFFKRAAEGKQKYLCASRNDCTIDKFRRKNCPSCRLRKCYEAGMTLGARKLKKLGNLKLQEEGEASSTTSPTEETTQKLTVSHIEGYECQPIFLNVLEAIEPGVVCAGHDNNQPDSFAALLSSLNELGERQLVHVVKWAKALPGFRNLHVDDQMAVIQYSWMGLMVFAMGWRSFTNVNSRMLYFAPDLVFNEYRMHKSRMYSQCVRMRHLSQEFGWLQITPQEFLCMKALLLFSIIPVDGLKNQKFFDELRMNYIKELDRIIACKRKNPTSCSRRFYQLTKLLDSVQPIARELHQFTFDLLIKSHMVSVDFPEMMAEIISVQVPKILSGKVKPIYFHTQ
Description: Human prostate cancer LNCaP cells and T47D cells were plated at a density of 7×10^5 cells per 60 millimeter tissue culture dish in […] (RPMI) medium containing 10% FBS. The medium was changed to RPMI or DME medium containing 10% charcoal-stripped serum 24 hours later to deplete cellular androgens or estrogens. After another 24 hours, treatment with the test compounds began. The test dose of JC15 was 1 or 2 micromolar and the test does of JC9 was 1, 5 and 10 micromolar. LNCap cells also received dihydrotestosterone (DHT) (3 nanomolar). Control cells received a corresponding amount of the vehicle, dimethylsulfoxide (DMSO) (<0.04%) for an equivalent exposure time. Cells were incubated with JC15 for 24 or 48 hours, and were lysed in 250 microliters of 1×SDS/PAGE loading buffer. Approximately 40 micrograms of total cellular protein was loaded in each lane of a pre-cast gel (NuPAGE, Invitrogen). Protein separation and transfer were performed following the manufacturer's instructions.

LNCaP cells = assay: LNCaP growth assay (cell count); format: cell-based, human; conditions: 5 μM
Description: LNCaP cells express an endogenous mutant AR that is found in prostate cancer patients. This clinically relevant cell model was used to study JC9's effect in suppressing prostate cancer cell growth. Cells were plated at a density of 6.3×10^4 cells/well in 6-well tissue culture dishes. Two days later, the complete medium was aspired and 10% charcoal/dextran-treated (hormone depleted) serum-containing medium was added. Test compounds, JC9 and hydroxyflutamide (HF) were then added to the medium at a final concentration of 5 μM with or without 1 nM of DHT. For vehicle control, the same amount of DMSO was added. For the subsequent 5 days, the medium was aspired once per day, and fresh medium containing test compounds and/or DHT was added. At designated times, a portion of cells was harvested by trypsinization, and cell count was performed using a hemacytometer.

[1] = test system: testosterone-induced hair growth suppression; assay: Androgen-induced alopecia model, hair re-growth in shaved mice; format: in vivo, C57BL/6J mice; conditions: topical testosterone 1% in the morning, JC9 0.02% in the afternoon, 20 days
Description: C57BL/6J mice were used in this animal model for hair loss and regrowth (Uno et al. (1990) J. Cutaneous Aging & Cosm. Derm., 1: 193, which is incorporated by reference in its entirety herein). Six-week-old male mice (6 to 7 animals per group) were shaved with an electric clipper, and then treated with a hair-removal cream for 1 to 2 minutes. […] One day after hair removal, a first group of animals each received 100 microliters of a 1% testosterone solution in ethanol, applied topically to the shaved area, once each morning for twenty consecutive days. A second group of animals each received 100 microliters of vehicle (ethanol) alone, applied topically to the shaved area, once each morning for twenty consecutive days. The first group of mice (testosterone-treated) were divided further into a control group and a treatment group. Also beginning one day after hair removal, each mouse in the control group received 100 microliters of a control solution (60% ethanol, 20% propylene glycol, and 20% water) and each mouse in the treatment group received 100 microliters of the test compound, JC9 (0.02% in the same 60% ethanol, 20% propylene glycol, and 20% water solution), applied topically to the shaved area, once each afternoon for twenty consecutive days. Hair re-growth in the shaved areas was observed and photographed at 12, 15, 18, 21, and 24 days after beginning of the topical treatments.

`COc1ccc(C=CC(=O)C=C(O)C=Cc2ccc(OC)c(OC)c2)cc1OC` [JC9, 5-hydroxy-1,7-bis(3,4-dimethoxyphenyl)-1,4,6-heptatrien-3-one] was tested, and the “cellular concentration of AR” value (androgen receptor (AR)) was “decreased”, the “cell growth (cell number) in the presence of DHT” value (LNCaP cells; with 1 nM DHT, 5 days) was “good potency to decrease LNCaP cell growth” and the “cell growth (cell number)” value (LNCaP cells; without DHT, 5-day incubation) was “only a minimal number of viable cells”. The “hair re-growth in shaved areas” value [1] was “rapid re-growth of hair in the shaved areas from day 10 to day 20; also recorded: hair growth on day 8 and fully re-growth of hair in the shaved areas after 20 days”.

From US20060084704A1, “Methods and compositions for enhancing degradation of nuclear receptor transcription factors and uses thereof” (priority 2004, published 2006)
